# According to US8258096B2, “Therapy procedure for drug delivery for trigeminal pain” (The Board of Trustees of the Leland Stanford Junior …, priority 2005, dated 2012):
# What was measured:
# Type in all cases: in vivo
# [1] = tested on: single pain sensing nerve cells in the trigeminal ganglion; assay: Nerve impulses of single trigeminal ganglion neurons in response to noxious laser pulses to the face; settings: rat, 10 nmoles applied to the nose, FIG. 2
# Experimental: Sprague-Dawley rats (Charles River Laboratories) were anesthetized with isofluorane and a platinum electrode was inserted transcranially into the trigeminal ganglion. Nerve impulses (action potential) were recorded from single pain sensing nerve cells in the trigeminal ganglion in response to application of noxious laser pulses to the face of the rats. After recording responses to several identical laser pulses, 10 nmoles of oxytocin was applied to the nose of the rats. Thereafter, identical laser pulses were once again applied and recorded.
# [2] = tested on: trigeminal nucleus caudalis wide dynamic range (WDR) neurons; assay: Electrical stimulation-induced responses of trigeminal nucleus caudalis WDR neurons; settings: rat
# Experimental: Male Sprague-Dawley rats (Charles River Laboratories) were anesthetized with isoflurane and used in the following experiments. In the anesthetized rats, single unit, extracellular recordings were performed in trigeminal nucleus caudalis while stimulating the ipsilateral facial skin with constant-current bipolar electrical stimulation. Epoxylate-insulated, tungsten microelectrodes (10 MOhm) were used under stereotaxic coordinate control.
# Shown are responses (action potentials per 30 stimuli) to repeated stimulation of a rat's face before oxytocin administration (pre-oxytocin). After administration with oxytocin at approximately 0.1 IU, responses were recorded every five minutes for 65 minutes. A second administration of oxytocin at the same dosage was administered at approximately 70 minutes after the first dose. The approximate site of the administration of the electrical stimulation is indicated by the black spot on a map of the rat's face (FIG. 3B).
# [3] = tested on: second-order neurons in the trigeminal nucleus caudalis; assay: Electrical stimulus-induced windup; settings: rat, intranasal 0.025 ml of 0.05 mg/ml
# Description: Male Sprague-Dawley rats (Charles River Laboratories) were anesthetized with isoflurane and used in the following experiments. […] Needle electrodes were inserted subcutaneously at the site indicated in FIG. 5A by the black spot on the rat's head, and the skin was stimulated at 0.66 Hz, 2 msec duration, 3×C-fiber threshold for >25 times.
# [4] = tested on: trigeminal nucleus caudalis wide dynamic range (WDR) neurons; assay: Long-pulse laser-induced responses of trigeminal nucleus caudalis WDR neurons; settings: rat, intranasal 0.025 ml of 0.05 mg/ml
# Experimental: Male Sprague-Dawley rats (Charles River Laboratories) were anesthetized with isoflurane and used in the following experiments. In the anesthetized rats, single unit, extracellular recordings were performed in trigeminal nucleus caudalis while stimulating the ipsilateral facial skin with diode laser or constant-current bipolar electrical stimulation. Epoxylate-insulated, tungsten microelectrodes (10 MOhm) were used under stereotaxic coordinate control. […] Shown are responses (action potentials per second) to an 8 second-duration, 425 mA intensity laser stimulus to the site indicated by the black spot on a map of the rat's face (FIG. 4E).
# Sprague-Dawley rats = assay: Withdrawal latencies after noxious laser thermal stimulation of ears or hindpaws after intranasal administration; settings: rat, intranasal 10 nmoles/kg, tested from five minutes after final application
# Description: One way to test activity of an analgesic agent in a rat model is by treatment-induced changes in latencies (times) of withdrawal in response to noxious heating of the skin, typically using an ear, the face or a hindpaw. Thus, application of coherent or non-coherent (non-laser) radiant heat to the ear, the face or hindpaw will elicit rapid withdrawal movements. […] Transmucosal or transdermal administration of analgesic agents to the trigeminal nerve to reduce trigeminal nerve-associated pain can be tested for regional and/or systemic analgesia. The rostral external part of a rat's ear is innervated by a branch of the mandibular nerve, itself a branch of the trigeminal nerve, thus after treatment an increase in latency to withdrawal time would indicate regional analgesia. […]
# Sprague-Dawley rats (Charles River Laboratories) were lightly anesthetized with urethane and placed with minimal restraint on a heating pad to maintain their body temperature at 37° C. […] Baseline withdrawal latencies were measured by delivering 4 separate stimuli with a resting period of approximately 15 minutes between each stimulus. […] As described above, testing sessions were videotaped and analyzed.
# [5] = intranasal approximately 0.1 IU, first dose
# [6] = second intranasal dose approximately 0.1 IU at approximately 70 minutes after the first
molecule,measurement,setting,value
"CC[C@H](C)[C@@H]1NC(=O)[C@H](Cc2ccc(O)cc2)NC(=O)[C@@H](N)CSSC[C@@H](C(=O)N2CCC[C@H]2C(=O)N[C@@H](CC(C)C)C(=O)NCC(N)=O)NC(=O)[C@H](CC(N)=O)NC(=O)[C@H](CCC(N)=O)NC1=O [Oxytocin, Cys-Tyr-Ile-Gln-Asn-Cys-Pro-Leu-Gly]","neuronal response (average nerve impulses per laser pulse), post- vs pre-treatment",[1],significantly (p<0.05) reduced
same,responses (action potentials per 30 stimuli) after first administration,"[2]; intranasal approximately 0.1 IU, electrical stimulation of face, FIG. 3A",significant reduction in responses
same,time after first administration at which reduction in responses began,[2]; [5],10 min
same,time post treatment until which reduction continued (responses then began to increase),[2]; [5],50 min
same,responses (action potentials per 30 stimuli) after second administration,[2]; [6],significant reduction in responses
same,time to reduction in responses after second administration,[2]; [6],≤ 10 min
C[C@@H](O)[C@@H]1NC(=O)[C@H](CCCCN)NC(=O)[C@@H](Cc2c[nH]c3ccccc23)NC(=O)[C@H](Cc2ccccc2)NC(=O)[C@@H](NC(=O)[C@H](N)Cc2ccccc2)CSSC[C@@H](C(=O)N[C@H](CO)[C@@H](C)O)NC1=O [octreotide],reduction of total number of action potentials,[3]; 10 minutes after administration vs before,19.4%
same,total number of action potentials during the stimulation period,"[3]; 10 minutes after administration, 25 stimulations at 0.66 Hz, 506 before treatment",408
same,response five minutes post-treatment,"[4]; 8 second 425 mA laser stimulus, 5 minutes, FIG. 4B",no detectable reduction in response
same,response at 10 minutes post-treatment,"[4]; 8 second 425 mA laser stimulus, 10 minutes, baseline 42 spikes",5 spikes
same,reduction of response at 10 minutes post-treatment,[4]; 10 minutes vs pre-treatment baseline,88%
same,response 25 minutes post-treatment,"[4]; 25 minutes, FIG. 4D",recovered
Tyr-Gly-Gly-Phe-Met [met-enkephalin],regional analgesic effect (ear withdrawal latency),"Sprague-Dawley rats; laser to ears, FIG. 1A",achieved a regional analgesic effect in the head region
same,systemic analgesic effect (hindpaw withdrawal latency),"Sprague-Dawley rats; laser to hindpaws, FIG. 1B",without a systemic analgesic effect at the hindpaw
